# Reference: PMC9127750, “Structure-based design of CDC42 effector interaction inhibitors for the treatment of cancer” (Cell reports, 2022)
# Values joined by “and” are separate entries in the source; they are usually repeats but may differ in a detail not shown here. Equal values may be shown once.
# System: WM3248 melanoma cells, 486 antibodies
# Assay: Reverse phase protein arrays (RPPA);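 on Cyclin.E1.R.V RPPA level: ratio of treated to vehicle (0 µM) normalized linear protein signal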;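 on DDB.1.R.V RPPA level: ratio of treated to vehicle (0 µM) normalized linear protein signal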
# Type: cell-based, Human
# Details: 20 uM
# Source text: Pellets were snap frozen in liquid nitrogen and shipped to MD Anderson Cancer Center core RPPA facility for RPPA analysis (Table S5). Three biological replicates for each sample were generated.
# Nomenclatures on the RPPA heatmaps: name_of_antibody.species_of_antibody.status_of_antibody. V - antibody validated; C - validation of antibody in progress; Q - antibody nonspecific; E – under evaluation; antibodies raised in M - mouse, G - goat, R - rabbit, or T - rat.
smiles,measurement,setting,value
"CN(C)c1cccc(Nc2cc(-c3ccccc3)nc(C3CCNCC3)n2)c1 [ARN22089, N1,N1-dimethyl-N3-(6-phenyl-2-(piperidin-4-yl)pyrimidin-4-yl)benzene-1,3-diamine]",Cyclin.D3.M.V RPPA level,replicates,0.858 and 0.793 and 0.870
same,Cyclin.E1.R.V RPPA level,replicates,1.034 and 0.978 and 0.864
same,Cyclophilin.F.M.V RPPA level,replicates,1.052 and 0.867 and 0.858
same,D.a.Tubulin.R.V RPPA level,replicates,0.908 and 1.131 and 1.049
same,DAPK1_pS308.M.C RPPA level,replicates,1.387 and 1.152
same,DAPK2.R.C RPPA level,replicates,0.896 and 1.008 and 1.104
same,DDB.1.R.V RPPA level,replicates,1.000 and 0.862 and 0.981
same,DDR1.R.V RPPA level,replicates,1.126 and 0.892 and 0.988
same,DDR1_pY513.R.C RPPA level,replicates,1.221 and 1.216 and 0.940
same,DJ1.R.V RPPA level,replicates,0.994 and 0.831 and 1.019
same,DM.Histone.H3.R.V RPPA level,replicates,4.051 and 0.967
same,DM.K9.Histone.H3.M.V RPPA level,replicates,1.226 and 2.170 and 0.946
same,DNA.Ligase.IV.R.C RPPA level,replicates,0.890 and 0.918 and 1.135
same,DNA_POLG.R.V RPPA level,replicates,1.260 and 0.956 and 0.859
same,c.Jun_pS73.R.V RPPA level,replicates,0.959 and 1.053 and 0.897
same,c.Kit.R.V RPPA level,replicates,1.404 and 1.046 and 0.973
same,c.Met_pY1234_Y1235.R.V RPPA level,replicates,0.958 and 1.104 and 1.130
same,c.Myc.R.C RPPA level,replicates,0.956 and 0.888 and 0.971
same,cGAS.R.V RPPA level,replicates,1.158 and 0.984
same,cdc2_pY15.R.C RPPA level,replicates,0.840 and 1.245 and 1.217
same,cdc25C.R.V RPPA level,replicates,0.813 and 0.749 and 1.085
same,RPPA MYH11.R.C,single replicates,1.235 and 1.080 and 0.987
same,RPPA Myosin.IIa.R.C,single replicates,0.819 and 0.811 and 1.194
same,RPPA Myosin.IIa_pS1943.R.V,single replicates,1.011 and 0.857 and 1.050
same,RPPA Myt1.R.C,single replicates,0.843 and 1.001 and 1.193
same,RPPA N.Cadherin.R.V,single replicates,1.047 and 1.081 and 0.976
same,RPPA N.Ras.M.V,single replicates,0.921 and 0.893 and 0.971
same,RPPA NAPSIN.A.R.C,single replicates,0.982 and 1.016 and 1.141
same,RPPA NDRG1_pT346.R.V,single replicates,0.868 and 0.915 and 1.192
same,RPPA NDUFB4.R.V,single replicates,1.100 and 0.998 and 0.982
same,RPPA NRF2.R.C,single replicates,0.849 and 0.982 and 0.977
same,RPPA Notch1.R.V,single replicates,1.052 and 1.121 and 0.952
same,RPPA Notch1.cleaved.R.V,single replicates,0.740 and 0.849 and 1.080
same,RPPA Notch3.R.C,single replicates,1.026 and 1.150 and 0.931
same,RPPA Oct.4.R.C,single replicates,0.991 and 1.164 and 1.209
same,RPPA P.Cadherin.R.C,single replicates,1.264 and 1.125
same,RPPA PAI.1.M.V,single replicates,1.005 and 1.281 and 0.932
same,RPPA PAICS.R.C,single replicates,0.803 and 0.811 and 1.058
same,RPPA PAK1.R.V,single replicates,0.820 and 0.886 and 1.049
same,RPPA PAK4.R.V,single replicates,1.076 and 0.939
same,RPPA PAK_pS474_S602_S560.R.V,single replicates,1.380 and 1.298 and 0.931
same,RPPA PAK_pT423_T402.R.C,single replicates,1.015 and 1.053 and 0.971
same,RPPA PAR.R.C,single replicates,0.974 and 1.464 and 0.714
same,RPPA PARG.R.C,single replicates,1.599 and 1.316 and 1.014
same,RPPA PARP.R.V,single replicates,0.538 and 1.057 and 1.348
same,RPPA PAX6.R.V,single replicates,1.001 and 1.058 and 0.982
same,RPPA PAX8.R.C,single replicates,1.024 and 0.925 and 0.962
same,RPPA PCNA.M.C,single replicates,0.783 and 0.854 and 0.955
same,RPPA PD.1.R.V,single replicates,1.098 and 1.052 and 0.984
same,RPPA PD.L1.R.C,single replicates,0.895 and 1.054 and 1.001
same,RPPA PDH.M.V,single replicates,0.970 and 1.058 and 0.953
same,RPPA PDHA1.R.V,single replicates,0.972 and 1.004 and 1.113
same,RPPA PDHK1.R.C,single replicates,0.803 and 0.959 and 1.129
same,RPPA PDK1.R.V,single replicates,1.000 and 1.250
same,RPPA PDK1_pS241.R.V,single replicates,0.916 and 0.898 and 1.103
same,RPPA PEA.15.R.V,single replicates,0.986 and 0.870 and 0.999
same,RPPA PEA.15_pS116.R.V,single replicates,1.029 and 0.986
same,RPPA PERK.R.V,single replicates,1.320 and 0.802 and 0.841
same,RPPA PGM1.R.V,single replicates,0.846 and 0.933
same,RPPA PHGDH.R.C,single replicates,0.989 and 0.962
same,RPPA PHLPP.R.V,single replicates,1.674 and 0.930 and 0.767
same,RPPA PI3K.p85.R.C,single replicates,1.023 and 0.792 and 0.886
same,RPPA PI3K.p110.a.R.C,single replicates,0.804 and 0.921
same,RPPA PI3K.p110.b.M.C,single replicates,0.988 and 0.918 and 0.941
same,RPPA PKA.a.R.V,single replicates,0.974 and 0.780 and 1.028
same,RPPA PKC.a.b.II_pT638_T641.R.V,single replicates,0.684 and 0.941 and 1.154
same,RPPA PKC.b.II_pS660.R.V,single replicates,0.997 and 1.114 and 1.126
same,RPPA PKCa.R.V,single replicates,0.630 and 2.106 and 1.942
same,RPPA PKM2.R.C,single replicates,0.846 and 0.763
same,RPPA PLC.gamma1.R.V,single replicates,1.296 and 0.944 and 0.963
same,RPPA PLC.gamma1_pS1248.R.V,single replicates,0.837 and 0.893 and 0.954
same,RPPA PLC.gamma2_pY759.R.V,single replicates,1.000 and 1.004 and 0.945
same,RPPA PLK1.R.C,single replicates,1.107 and 0.592 and 1.060
same,RPPA PMS2.R.V,single replicates,1.016 and 0.991 and 0.952
same,RPPA PR.R.V,single replicates,0.957 and 0.966 and 0.945
same,RPPA PRAS40.M.C,single replicates,1.496 and 1.229 and 0.955
same,RPPA PRAS40_pT246.R.V,single replicates,1.099 and 1.166
same,RPPA PRC1_pT481.R.C,single replicates,1.163 and 1.114 and 0.975
same,RPPA PREX1.R.V,single replicates,0.874 and 0.851 and 1.124
same,RPPA PTEN.R.V,single replicates,1.018 and 1.109 and 1.120
same,RPPA PTPN12.R.V,single replicates,1.234 and 1.447
same,RPPA PYGB.R.V,single replicates,1.097 and 1.103
same,RPPA PYGM.M.C,single replicates,0.934 and 0.932 and 1.083
same,RPPA Patched.R.C,single replicates,0.965 and 1.140 and 1.132
same,RPPA Paxillin.R.C,single replicates,0.641 and 0.823 and 1.018
same,RPPA Pdcd4.R.C,single replicates,0.925 and 0.993 and 1.052
same,RPPA Porin.M.V,single replicates,1.104 and 0.957
same,RPPA Puma.R.C,single replicates,0.983 and 0.942 and 1.107
same,RPPA Pyk2_pY402.R.C,single replicates,0.954 and 1.153 and 1.099
same,RPPA RBM15.R.V,single replicates,1.017 and 0.937 and 1.032
same,RPPA RIP3.R.C,single replicates,0.931 and 0.981
same,RPPA RIP.R.C,single replicates,0.915 and 1.063
same,RPPA RPA32.R.V,single replicates,1.148 and 1.033 and 1.052
same,RPPA RPA32_pS4_S8.R.C,single replicates,2.002 and 1.599 and 0.993
same,RPPA RRM1.R.C,single replicates,0.824 and 0.941
same,RPPA RRM2.R.C,single replicates,0.754 and 0.881 and 1.132
same,RPPA RSK1.R.V,single replicates,0.828 and 0.819
same,RPPA RSK.R.C,single replicates,1.012 and 0.889 and 1.017
same,RPPA Rab11.R.C,single replicates,1.004 and 1.130
same,RPPA Rab25.R.V,single replicates,0.958 and 1.084
same,RPPA Rad17_pS645.R.V,single replicates,0.998 and 1.234 and 0.987
same,RPPA Rad23A.R.C,single replicates,0.881 and 0.793 and 1.163
same,RPPA Rad50.R.V,single replicates,1.028
same,RPPA Rad51.R.C,single replicates,0.897 and 0.995 and 0.927
same,RPPA Raptor.R.V,single replicates,0.847 and 1.006 and 1.049
same,RPPA Rb.M.Q,single replicates,1.078 and 0.962 and 0.891
same,RPPA Rb_pS807_S811.R.V,single replicates,0.920 and 0.719 and 1.081
same,RPPA Rheb.M.C,single replicates,1.252 and 1.239
same,RPPA Rictor.R.C,single replicates,0.967
same,RPPA Rictor_pT1135.R.V,single replicates,1.012 and 1.102 and 1.115
same,RPPA S6.M.V,single replicates,1.262 and 0.956 and 0.729
same,RPPA S6_pS235_S236.R.V,single replicates,0.203 and 0.249 and 0.565
same,RPPA S6_pS240_S244.R.V,single replicates,0.207 and 0.313 and 0.749
same,RPPA SCD.M.V,single replicates,1.014 and 0.906 and 0.962
same,RPPA SDHA.R.V,single replicates,1.002 and 1.200
same,RPPA SF2.R.V,single replicates,1.008 and 0.980
same,RPPA SFRP1.R.V,single replicates,1.055 and 0.981 and 0.922
same,RPPA SGK1.R.V,single replicates,0.787 and 0.759 and 0.980
same,RPPA SGK3.R.V,single replicates,1.047 and 1.079 and 0.942
same,RPPA SHP2.R.V,single replicates,1.046 and 1.001 and 0.967
same,RPPA SHP.2_pY542.R.C,single replicates,1.101
same,RPPA SIRPαR.V,single replicates,1.429 and 0.758 and 0.756
same,RPPA SLC1A5.R.C,single replicates,1.116 and 0.885 and 1.238
same,RPPA SOD1.M.V,single replicates,0.930 and 1.026 and 0.944
same,RPPA SOD2.R.V,single replicates,1.210 and 1.153 and 0.970
same,RPPA SOX7.R.V,single replicates,1.129 and 1.097 and 1.010
same,RPPA STING.R.V,single replicates,1.022 and 0.890 and 0.979
same,RPPA Shc_pY317.R.C,single replicates,0.878 and 1.001 and 1.156
same,RPPA Slfn11.G.C,single replicates,1.081 and 0.905 and 0.999
same,RPPA Smac.M.Q,single replicates,1.032 and 0.944 and 0.954
same,RPPA Smad1.R.V,single replicates,0.952 and 1.150 and 1.141
same,RPPA Smad3.R.V,single replicates,1.122 and 1.116
same,RPPA Smad4.R.V,single replicates,1.439 and 1.061 and 0.837
same,RPPA Snail.M.Q,single replicates,0.766 and 0.784 and 0.712
same,RPPA Sox2.R.V,single replicates,1.214 and 1.389
same,RPPA Sox17.R.V,single replicates,0.937 and 0.923
same,RPPA Src.M.V,single replicates,0.956 and 1.011 and 0.918
same,RPPA Src_pY416.R.V,single replicates,0.994 and 1.111 and 0.997
same,RPPA Src_pY527.R.V,single replicates,1.022 and 1.387 and 1.151
same,RPPA Stat1_pY701.R.V,single replicates,1.097 and 1.029 and 0.986
same,RPPA Stat3.R.C,single replicates,0.851 and 0.986 and 1.101
same,RPPA Stat3_pY705.R.C,single replicates,1.728 and 1.194 and 0.922
same,RPPA Stat5a.R.V,single replicates,0.903 and 1.373 and 1.278
same,RPPA Stathmin.1.R.V,single replicates,0.916 and 0.858 and 0.997
same,RPPA Syk.M.V,single replicates,0.934 and 1.057 and 0.933
same,RPPA Synaptophysin.R.C,single replicates,1.153 and 0.998 and 0.965
same,RPPA TAZ.R.V,single replicates,0.631 and 0.534 and 0.991
same,RPPA TEAD.R.C,single replicates,0.716 and 1.191
same,RPPA TFAM.R.V,single replicates,0.999 and 0.944 and 0.992
same,RPPA TFRC.R.V,single replicates,0.895 and 0.844 and 1.062
same,RPPA TIGAR.R.V,single replicates,1.012 and 1.022 and 1.077
same,RPPA TRAP1.M.V,single replicates,0.979 and 0.864 and 0.990
same,RPPA TRIM24.R.C,single replicates,1.117 and 0.958
same,RPPA TRIM25.R.C,single replicates,0.754 and 0.868 and 1.058
same,RPPA TRIP13.R.V,single replicates,1.019 and 0.950 and 0.966
same,RPPA Tau.M.C,single replicates,1.147 and 1.195 and 0.925
same,RPPA Transglutaminase.M.V,single replicates,0.881 and 1.342 and 1.747
same,RPPA level HLA.DQA1.R.V,single replicates,1.062 and 1.076 and 0.920
same,RPPA level HLA.DR.DP.DQ.DX.R.C,single replicates,1.376 and 1.011 and 0.963
same,RPPA level HMHA1.R.V,single replicates,1.204
same,RPPA level HNRNPK.R.V,single replicates,1.033 and 1.100
same,RPPA level HSP27.M.C,single replicates,0.818 and 0.879 and 0.896
same,RPPA level HSP27_pS82.R.V,single replicates,0.857 and 1.102 and 1.157
